Reference: patent US5618814A, “Trisubstituted pyrimido [5,4-d] pyrimidines for modulating multi-drug resistance and pharmaceutical compositions containing these compounds” (Dr. Karl Thomae GmbH, priority 1993, dated 1997)
Like-named read-outs stand apart in the source and are kept apart here.

How the values were obtained:
[1] = system: adriamycin-resistant S 180 mouse sarcoma cells; assay: Cytotoxicity in proliferating adriamycin-resistant S 180 mouse sarcoma cells (MTT, 6 days) in the absence or presence of adriamycin; format: cell-based; details: S-180, 144 h
Description: was tested on cells resistant to adriamycin as follows:
Proliferating, adriamycin-resistant S 180 mouse sarcoma cells were cultivated for six days in the presence of various concentrations of test substances. Concentrations of the test substances with a cytotoxic or cytostatic effect were indicated by reduced cell growth or by the cells dying off. The end point of the assay is the number of living cells per culture which is determined indirectly, making use of the property of vital cells to reduce the dye MTT [=3-(4,5-dimethylthiazol-2-yl)-2,5-diphenyltetrazoliumbromide] to coloured formazane. The IC50 denotes the concentration of a test substance which reduces the number of vital cells per culture vessel to 50% of the untreated control. […] Therefore, two IC50 values are obtained for each test substance, one in the presence of adriamycin (IC50 ADR), the other in the absence of adriamycin (IC50). The difference in the logarithms (to the base ten) of the two IC50 values: Δ=lgIC50-lgIC50 ADR is a measure of the increase in the cytotoxicity of the test substance brought about by adriamycin.
Exponentially growing adriamycin-resistant or adriamycin-sensitive S 180 cells were plated out in 96-well flat-bottomed microtitre dishes at a rate of 2000 cells per well in 100 μl of growth medium (RPMI-1640 containing 10% foetal calf serum). The culture dishes were incubated in an incubator at 37° C., 5% CO2 at 100% relative humidity. After 24 hours, 50 μl of growth medium containing various concentrations of test substance and 50 μl of growth medium with or without adriamycin were added to each well. Following a further 6-day cultivation period, 50 μl of tetrazolium salt solution [5 mg of 3-(4,5-dimethylthiazol-2-yl)-2,5-diphenyl-tetrazoliumbromide per ml of phosphate-buffered saline solution, diluted 1:5 (v/v) with RPMI-1640 before use] were pipetted into each well. After […] incubation the culture medium was carefully suction filtered and the formazane formed intracellularly was solubilised with 150 μl of dimethylsulphoxide per well. The dishes were briefly shaken and the optical density was measured at 570 nm with a photometer such as a Dynatech MR-600 apparatus. The formation of the coloured formazane by reduction of the tetrazolium salt is proportional to the number of living cells. The averages of three measurements were used to calculate the IC50 values (dilution stage: 1:2).

[2] = Tolerability after i.v. administration in mice; format: in vivo; details: 100 mg/kg i.v. in mice
[3] = Adriamycin 0 ng/ml (absence of adriamycin), read-out: IC50
[4] = in presence of Adriamycin 100 ng/ml, read-out: IC50 (IC50 ADR)

Structure (SMILES): CN(Cc1ccccc1)c1ncnc2c(N3CCOCC3)nc(N3CCC(N(C)C)CC3)nc12 [Substance A, 2-[4-(N,N-dimethylamino)-piperidino]-8-(N-benzyl-N-methyl-amino)-4-morpholino-pyrimido [5,4-d]pyrimidine]
- IC50 [1, 3]: 1 µg/mL
- IC50 [1, 4]: 0.3 µg/mL

Structure (SMILES): CN(Cc1ccccc1)c1ncnc2c(N3CCCCC3)nc(N3CCC(N(C)C)CC3)nc12 [Substance C, 2-[4-(N,N-dimethylamino)-piperidino]-8-(N-benzyl-N-methyl-amino)-4-piperidino-pyrimido [5,4-d]pyrimidine]
- IC50 [1, 3]: 2 µg/mL
- IC50 [1, 4]: 0.3 µg/mL

Structure (SMILES): CN(C)C1CCN(c2nc(N3CCOCC3)c3ncnc(N(CCCNC(=O)c4ccccc4)Cc4ccccc4)c3n2)CC1 [Substance J, 2-[4-(N, N-dimethylamino)-piperidino]-8-[N-benzyl-N-(3-benzoylaminopropyl)-amino]-4-morpholino-pyrimido-[5,4-d]pyrimidine]
- IC50 [1, 3]: 3 µg/mL
- IC50 [1, 4]: 0.1 µg/mL

Structure (SMILES): COc1cc2c(cc1OC)CN(c1ncnc3c(N4CCOCC4)nc(N4CCC(N(C)C)CC4)nc13)CC2 [Substance G, 2-[4-(N,N-dimethylamino)-piperidino]-8-(6,7-dimethoxy-1,2,3,4-tetrahydro-isoquinolin-2-yl)-4-morpholino-pyrimido [5,4-d]pyrimidine]
- IC50 [1, 3]: 3 µg/mL
- IC50 [1, 4]: 0.1 µg/mL
- toxic side effects / tolerability [2]: did not lead to any detectable toxic side effects

Structure (SMILES): CN(Cc1ccccc1)c1nc(N2CCC(NCC(c3ccccc3)c3ccccc3)CC2)nc2c(N3CCOCC3)ncnc12 [Substance I, 2-[4-(2,2-diphenylethylamino)-piperidino]-4-(N-benzyl-N-methyl-amino)-8-morpholino-pyrimido-[5,4-d]pyrimidine]
- IC50 [1, 3]: 10 µg/mL
- IC50 [1, 4]: 0.3 µg/mL

Structure (SMILES): CN(Cc1cccc2ccccc12)c1nc(N2CCC(N(C)C)CC2)nc2c(N3CCOCC3)ncnc12 [Substance K, 2-[4-(N,N-dimethylamino)-piperidino]-4-[N-(naphth-1-yl-methyl)-N-methyl-amino]-8-morpholino-pyrimido-[5,4-d]pyrimidine]
- IC50 [1, 3]: 3 µg/mL
- IC50 [1, 4]: 0.1 µg/mL

Structure (SMILES): CN(Cc1ccccc1)c1nc(N2CCC(N(C)C)CC2)nc2c(N3CCOCC3)ncnc12 [Substance F, 4-(N-benzyl-methyl-amino)-2-[4-(N,N-dimethylamino)-piperidino]-8-morpholino-pyrimido [5,4-d]pyrimidine]
- IC50 [1, 3]: 3 µg/mL
- IC50 [1, 4]: 0.3 µg/mL

Structure (SMILES): CN(C)CC1CCN(c2nc(N3CCOCC3)c3ncnc(N(C)Cc4cccc5ccccc45)c3n2)CC1 [Substance E, 2-[4-(N,N-dimethylaminomethyl)-piperidino]-8-[N-(napth-1-yl-methyl)-N-methyl-amino]-4-morpholino-pyrimido [5,4-d]pyrimidine]
- IC50 [1, 3]: 3 µg/mL
- IC50 [1, 4]: 0.1 µg/mL

Structure (SMILES): CN(Cc1ccccc1)c1ncnc2c(N3CCOCC3)nc(N3CCC(N4CCCCC4)CC3)nc12 [Substance D, 8-(N-benzyl-N-methyl-amino)-2-[4-(piperidino)-piperidin-1-yl]-4-morpholino-pyrimido [5,4-d]pyrimidine]
- IC50 [1, 3]: 3 µg/mL
- IC50 [1, 4]: 0.3 µg/mL

Structure (SMILES): CN(Cc1cccc2ccccc12)c1ncnc2c(N3CCOCC3)nc(N3CCC(N(C)C)CC3)nc12 [Substance H, 2-[4-(N,N-dimethylamino)-piperidino]-8-[N-(naphth-1-yl-methyl)-N-methyl-amino]-4-morpholino-pyrimido [5,4-d]pyrimidine]
- IC50 [1, 3]: 3 µg/mL
- IC50 [1, 4]: 0.1 µg/mL

Structure (SMILES): COC(=O)NC1CCN(c2nc(N3CCOCC3)c3ncnc(N(C)Cc4ccccc4)c3n2)CC1 [Substance B]
- IC50 [1, 3]: 10 µg/mL
- IC50 [1, 4]: 1 µg/mL
